For the experiment, the target named is T1, purified rALK (Homo sapiens, UniProt Q9UM73).
T1 construct: A portion of ALK, stretching from amino acids Leu^1073 to Ala^1459, has been cloned into the baculovirus transfer vector; made in house; host or cells: Sf9 (Spodoptera frugiperda) insect cells, baculovirus (pBlueBacHis2C, MaxBac 2.0)
Description: ELISA-based in vitro kinase assay. The format is biochemical. On the procedure:
ELISA-based in vitro Kinase Assay A Nunc Immuno 96 well plate was incubated overnight at 37° C. with coating solution (125 μl/well) containing ALK peptide substrate (SEQ ID N. 1 or SEQ ID N. 2) at various concentrations in PBS. The wells were then washed with 200 μl of wash buffer (PBS-Tween 0.05%) and left to dry for at least 2 hours at 37° C. […] The reaction mix was then removed and wells were washed 5 times with 200 μl of wash buffer. Phosphorylated peptide was detected using 100 μl/well of a mouse monoclonal anti-phosphotyrosine antibody (clone 4G10 UpstateBiotech Ltd) diluted 1:500 in PBS+4% BSA. After 30 minutes incubation at room temperature the antibody was removed and wells were washed as described above. 100 μl of a secondary antibody (anti-mouse IgG, Horseradish Peroxidase linked whole antibody, from sheep, Amersham Pharmacia Biotech) diluted 1:1000 in PBS+4% BSA was added to each well and the plate was incubated again for 30 minutes at room temperature before washing as above. The plate was developed using 100 μl/well TMB Substrate Solution (Endogen) and the reaction was stopped by adding an equal volume of H2SO4 0.18 M. Finally, the absorbance was read at 450 or 490 nm using an Ultrospec® 300 spectrophotometer (Amersham-Pharmacia Biotech).
(In general: An ELISA detects its analyte on a solid surface through an enzyme-linked reagent.)

T1 sequence (Q9UM73 1073-1459): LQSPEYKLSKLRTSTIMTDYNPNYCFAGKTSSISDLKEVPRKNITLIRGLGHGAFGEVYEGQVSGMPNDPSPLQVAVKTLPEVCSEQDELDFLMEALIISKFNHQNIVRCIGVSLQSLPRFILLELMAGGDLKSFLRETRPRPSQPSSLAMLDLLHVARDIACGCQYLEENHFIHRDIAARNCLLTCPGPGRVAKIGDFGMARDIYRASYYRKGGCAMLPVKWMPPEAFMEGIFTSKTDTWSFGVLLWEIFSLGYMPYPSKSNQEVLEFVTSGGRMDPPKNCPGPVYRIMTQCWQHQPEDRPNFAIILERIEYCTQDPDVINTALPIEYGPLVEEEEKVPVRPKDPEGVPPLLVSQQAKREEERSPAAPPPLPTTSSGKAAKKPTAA

For the compound `CN[C@@H]1C[C@H]2O[C@@](C)([C@@H]1OC)n1c3ccccc3c3c4c(c5c6ccccc6n2c5c31)C(=O)NC4` [Staurosporine], under “42 μM peptide substrate, 20 ng rALK, 30° C., 15 mins”, the “concentration reaching maximum inhibition of rALK activity” value came to 1 µM. Where the note is “positive control for screening”, the “concentration at which effective as an ALK inhibitor” value fell in the range of 0.2 to 0.3 µM.

(Values after patent US20070031907A1, “Anaplastic lymphoma kinase assay, reagents and compositions thereof” (Istituto Nazionale Per Lo Studio E La Cura Dei Tumori, priority 2003, published 2007).)
